Format in all cases: cell-based
Data set [1] can be described thus: Cytotoxicity on HELF cells (anti-HCMV cytopathogenicity test plates). To be noted: human, human lung fibroblasts (HELF), 6 days incubation. The protocol:
(§1) The test compounds were employed as 50 millimolar (mM) solutions in dimethyl sulfoxide (DMSO). Ganciclovir, foscarnet and cidofovir served as reference compounds. After the addition of 2 μl in each case of the 50, 5, 0.5 and 0.05 mM DMSO stock solutions to 98 μl each of cell culture medium in row […] in duplicate, 1:2 dilutions using 50 μl each of medium up to row 11 of the 96-well plate were carried out. The wells in rows 1 and 12 each contained 50 μl of medium. 150 μl each of a suspension of 1×10^4 cells (human lung fibroblasts [HELF]) were then pipetted into the wells (row 1=cell control) or a mixture of HCMV-infected and non-infected HELF cells (M.O.I.=0.001-0.002), i.e. 1-2 infected cells to 1000 non-infected cells, was pipetted into rows 2-12. Row 12 (without substance) served as a virus control. The final test concentrations were 250-0.0005 μM. The plates were incubated at 37° C./5% CO2 for 6 days, i.e. until all cells were infected in the virus controls (100% cytopathogenic effect [CPE]). The wells were then fixed by addition of a mixture of formalin and Giemsa's stain and stained (30 minutes), washed with double-distilled water and dried at 50° C. in a drying oven. The plates were then evaluated visually using an overhead microscope (Plaque multiplier from Technomara). […]
In general terms: Cytopathic effects are the visible damage that an infection or toxin causes in cultured cells.

Data set [2] relates to HCMV (human cytomegalovirus). In words: Anti-HCMV cytopathogenicity test. As to conditions: Human betaherpesvirus 5, 144 h; inhibition of CPE by 50%, HCMV-infected HELF cells, M.O.I. 0.001–0.002, 6 days. The protocol:
as §1, with “Anti-HCMV (anti-human cytomegalovirus) and anti-MCMV (anti-murine cytomegalovirus) cytopathogenicity tests: The test” for “The test”

Data set [3] in a line: Cytotoxicity on 3T3 cells (anti-MCMV test). To be noted: 3T3 mouse cells, 5 days incubation.
Data set [4] deals with MCMV (murine cytomegalovirus). In words: Anti-MCMV cytopathogenicity test. As to conditions: Murid betaherpesvirus 1, 120 h; MCMV on 3T3 mouse cells, M.O.I. 0.05–0.1, 5 days. How it is done: Anti-HCMV (anti-human cytomegalovirus) and anti-MCMV (anti-murine cytomegalovirus) cytopathogenicity tests:
The test compounds were employed as 50 millimolar (mM) solutions in dimethyl sulfoxide (DMSO). Ganciclovir, foscarnet and cidofovir served as reference compounds. After the addition of 2 μl in each case of the 50, 5, 0.5 and 0.05 mM DMSO stock solutions to 98 μl each of cell culture medium in row 2 A-H in duplicate, 1:2 dilutions using 50 μl each of medium up to row 11 of the 96-well plate were carried out. The wells in rows 1 and 12 each contained 50 μl of medium. 150 μl each of a suspension of 1×10^4 cells (human lung fibroblasts [HELF]) were then pipetted into the wells (row 1=cell control) or a mixture of HCMV-infected and non-infected HELF cells (M.O.I.=0.001–0.002), i.e. 1–2 infected cells to 1000 non-infected cells, was pipetted into rows 2–12. Row 12 (without substance) served as a virus control. The final test concentrations were 250–0.0005 μM. The plates were incubated at 37° C./5% CO2 for 6 days, i.e. until all cells were infected in the virus controls (100% cytopathogenic effect [CPE]). The wells were then fixed by addition of a mixture of formalin and Giemsa's stain and stained (30 minutes), washed with double-distilled water and dried at 50° C. in a drying oven. The plates were then evaluated visually using an overhead microscope (Plaque multiplier from Technomara). […]

The CC50 is the concentration that lowers cell viability or growth by half. A low value points to harm at low concentration. A word on the EC50: it is the concentration needed to bring the measured effect to its halfway point.

Consider `CC1(C(=O)Nc2ccc(NS(=O)(=O)c3cccc(-c4noc([C@@H](N)CCCCN)n4)c3)cc2)CC1` [Example 1], for which the CC50 at 6 days in data set [1] is above 250000 nM. For the same compound, the results for the half-maximal effective concentration (EC50) in data set [2] and in data set [4] were 28 nM and 35 nM, respectively. The compound further displayed a CC50 at 5 days in data set [3] of 18000 nM.
Take `CC(C)[C@H](N)c1nc(-c2ccc(S(=O)(=O)Nc3cccc(NC(=O)C(C)(C)CF)c3)cc2)no1` [Example 3, N-(3-{[(4-{5-[(1S)-1-Amino-2-methylpropyl]-1,2,4-oxadiazol-3-yl}phenyl)sulphonyl]amino}phenyl)-3-fluoro-2,2-dimethylpropanamide]: in data set [1], the CC50 at 6 days is above 250000 nM. For the same compound, the EC50 in data set [2] and in data set [4] was 74 nM in each case. The CC50 at 5 days in data set [3] is 63000 nM.

(Values after patent publication US7115636B2, “Hetrocyclic aryl sulphonamides” (Bayer Healthcare AG, priority 2001, dated 2006).)
